Measured values as given in patent US20060204502A1 (priority 2004, published 2006).
Where “and” joins values, the source holds several entries; their conditions need not be identical. Equal entries are not always repeated. Where two headings read alike, the source gives them in different places.

Columns and labels:
A375 cells = experiment: Flow cytometry cell cycle (G2/M) and apoptosis (sub-G1) analysis, A375; assay type: cell-based, human; settings: for EC50: Homo sapiens; for reduction of apoptosis induced by paclitaxel: A375, paclitaxel 25 ng/ml, PD98059 20 μM, U0126 30 μM, SB203580 1 μM
Method: Flow Cytometry Analysis: A375 and NCTC2544 adherent cells were trypsinized, mixed with floating cells, washed with PBS and permeabilised in 70% (vol/vol) ethanol/PBS solution at 4° C. for at least 24 hours. Jurkat, HeL023 and PBMC cells were centrifuged for 10 minutes at 1000×g. The cell pellet was then resuspended and permeabllised in 70% (vol/vol) ethanol/PBS solution at 4° C. for at least 24 hours. The cells were washed with PBS and the DNA was stained with a PBS solution, containing 20 μg/ml of propidium iodide and 100 μg/ml of RNAse, at room temperature for 30 minutes. Cells were analysed by FACScan (Becton-Dickinson) and the content of DNA was evaluated by the Cell-LISYS program (Becton-Dickinson). Cell distribution among cell cycle phases and apoptotic cells was evaluated as previously described (Secchiero et al., 2001). Briefly, the cell cycle distribution is shown as the percentage of cells containing 2n (G1 phase), 4n (G2 and M phases), 4n>x>2n. DNA amount (S phase) judged by propidium iodide staining. The apoptotic population is the percentage of cells with DNA content lower than 2n.
After 24 hours, cells were collected for flow cytometry analysis. PD 98059 was used at 20 uM as an inhibitor of MEK to prevent MEK-1 activation. […]
EC50 values were obtained by analysing G2/M accumulation dose response curve. ECMAX values were obtained by analysing sub-G1 accumulation dose response curve. Paclitaxel values have units of ng/ml.

HIF-1α = HIF-1α protein immunoblot in hypoxic cells; assay type: cell-based, human; settings: A375; for effect on Cl-IB-MECA-induced increase of HIF-1α protein expression / effect on adenosine-induced HIF-1α protein expression: hypoxia 4 hours; for effect on Cl-IB-MECA-induced increase of HIF-1α protein expression: Cl-IB-MECA 100 nM, U0126 10 and 30 μM, SB202190 1 and 10 μM; for effect on adenosine-induced HIF-1α protein expression: adenosine 100 μM, antagonist 100 nM
Method: Cell culture and hypoxia treatment: Cells were maintained in DMEM (A375), EMEM (NCTC 2544) or RPMI 1640 (U87MG, U2OS) medium containing 10% fetal calf serum, penicillin (100 U/ml), streptomycin (100 ug/ml), and L-glutamine (2 mM) at 37° C. in 5% CO2/95% air. Cells were passaged two or three times weekly at a ratio between 1:5 and 1:10. Hypoxic exposure was in BBL™ GasPak pouch™ System (Becton Dickinson) that reduce oxygen concentration of less than 2% within 2 hours of incubation at 35° C.
Cells were harvested and washed with ice-cold PBS containing 1 mM sodium orthovanadate, AEBSF 104 mM, aprotinin 0.08 mM, leupeptin 2 mM, bestatin 4 mM, pepstatin A 1.5 mM, E-64 1.4 mM. Cells were then lysed in Triton lysis buffer. The protein concentration was determined using BCA protein assay kit (Pierce). […] The gel was then electroblotted onto a nitrocellulose membrane. Membranes were blocked with 5% nonfat dry milk in PBS containing 0.1% Tween-20 and incubated with antibodies against HIF-1α (1:250 dilution) and HIF-1β (1:1000 dilution) in 5% nonfat dry milk in PBS/0.1% Tween-20 overnight at 4° C. Aliquots of total protein sample (50 ug) were analyzed using antibodies specific for phosphorylated (Thr183/Tyr185) or total p44/p42 MAPK (1:5000 dilution), phosphorylated (Thr180/Tyr182) or total p38 MAPK (1:1000 dilution) and for A3 receptor (1 µg/ml dilution). Filters were washed and incubated for 1 hour at room temperature with peroxidase-conjugated secondary antibodies against mouse and rabbit IgG (1:2000 dilution). […] The membranes were then stripped and reprobed with tubulin (1:250) to ensure equal protein loading.
U0126 was used at 10 and 30 uM as inhibitor of MEK-1 and MEK-2 to prevent p44 and p42 MAPK activation. SB202190 was used at 1 and 10 uM as inhibitor of p38 MAPK.
Densitometry analysis: The intensity of each band in immunoblot assay was quantified using molecular analyst/PC densitometry software (Bio-Rad). […] The data were presented as the mean±S.E., and analyzed by the Student's test.

[1] = administered at 100 mg/m^2; cited from earlier work
P-gp = P-gp (Homo sapiens, UniProt P08183); assay type: cell-based; settings: for % of Rh123 Negative Cells (cells expressing P-gp activity): HeL023 cells
Method: Rhodamine 123 Efflux Assay: 5×10^5 cells from each subline were loaded with 50 ng/ml of rhodamine 123 for 30 minutes at 37 C in medium. The cells were washed and resuspended in dye-staining agent free medium for 3 hours at 37 C. to allow rhodamine 123 efflux. The cells were then washed twice and the fluorescence of intracellular rhodamine 123 were analysed with Flow cytometer (residual fluorescence FRES). The fluorescence was compared with loaded cells maintained at 4 C. to prevent drug export (maximal fluorescence FMAX). […] Cells from each subline that were not being exposed to rhodamine 123 were used as negative controls.
Rhodamine 123 (Rh123) retention, a P-gp functional assay, was studied in all cell lines. This assay was performed by incubating cells with Rh123 and determining Rh123 accumulation by measuring its fluorescence. The maximum load of Rh123 (FMAX) was quantified at the end of treatment harvesting the cells and storing them at 4° C. to prevent any active Rh123 efflux. The P-gp drug efflux was allowed incubating Rh123-loaded cells in fresh new medium Rh123-free for 3 hours at 37° C. After this incubation, residual fluorescence (FRES) was measured and compared to FMAX.

[2] = system: Human Colon Carcinoma HT29; experiment: MTT growth inhibitory assay, HT29; assay type: cell-based; settings: for Enhancement Factor: HT29 cells, A3 antagonist at 0.5 μg/ml
Method: (§1) Interpretation of the EF is dependent upon the concentrations of A3 receptor antagonist tested. For example, when using very low concentrations of A3 receptor antagonist, any EF above 1.0 is synergistic if the A3 receptor antagonist concentration is below the threshold of cell growth inhibition.
(§2) The cells are sub-cultured twice a week.
(§3) Vinblastine sulfate salt was obtained from Sigma Chemical Co., (V1377). Irinotecan was diluted with culture medium. All other agents were dissolved in 100% DMSO at appropriate concentrations. The DMSO stock solutions were diluted 100-fold with growth medium so that the final DMSO concentration was 1%.

Human Melanoma A375 = experiment: MTT growth inhibitory assay, A375; settings: A375 cells
Method: An exemplary assay may comprise the following steps: Cells (1000-1500 cells/well) are seeded in a 96-well micro culture plate in a total volume of 100 μl/well. After overnight incubation in a humidified incubator at 37° C. with 5% CO2-95% air, chemotherapeutic drug solutions diluted with culture medium at various concentrations are added in the amount of 100 μl to each well. The plates are placed in a humidified incubator at 37° C. with 5% CO2-95% air for 7-10 days. The plates are then centrifuged briefly and 100 μl of the growth medium is removed. Cell cultures are incubated with 50 μl of MTT [3-(4,5-dimethylthiazol-2-yl)-2,5-diphenyl-tetrazolium bromide] reagent (1 mg/ml in Dulbecco's phosphate-buffered saline) for 4 hr at 37° C. The resultant purple formazan precipitate is solubilized with 200 μl of 0.04 N HCl in isopropanol. Absorbance is measured at a wavelength of 595 nm and at a reference wavelength of 655 nm using a Bio-Rad Model 3550 Microplate Reader. Preferably, all tests are run in duplicate for each dose level. […] The EZED50 computer program estimates the concentration of agent that inhibits cell growth by 50% as compared to the control cells. This is termed the IC50 and is determined by curve fitting test data using the following four logistic equation. [formula]
If testing concentrations are properly selected (i.e., no or little growth inhibition at low concentrations and complete inhibition at high concentrations), EZED50 program fits the data extremely well and estimates the IC50 value accurately. […] In these instances, the data could be re-analyzed by fixing the Amax value.
In this case, the IC50 could be estimated more accurately if both the Amax and Amin values are fixed. Although it may be feasible to estimate IC50 value by fixing Amax and/or Amax and Amin without repeating the experiment, the best way to determine the IC50 accurately is to decrease or increase the concentrations of the test agent and repeat the test.
Inhibitory assay testing is also used to determine enhanced therapeutic effects from combining A3 receptor antagonists with other tumor inhibiting agents. The inhibitory cell growth assays are run with and without selected concentrations of A3 receptor antagonists. An enhanced therapeutic effect is present when the IC50 of the tumor inhibiting agent is lower with the A3 receptor antagonist.
Quantitatively, the enhancement factor (EF) is calculated by dividing the IC50 value of the tumor inhibiting agent for a tumor cell line by the IC50 value of the agent with A3 receptor antagonist for the same cell line: [formula]
The cells are cultured in a T25 Falcon Tissue Culture flask in a humidified incubator at 37° C. with 5% CO2-95% air. The cells are sub-cultured twice a week.

[3] = system: Human Pancreatic Cancer Panc-1; experiment: MTT growth inhibitory assay, Panc-1; assay type: cell-based; settings: Panc-1 cells, A3 antagonist at 0.5 μg/ml
Method: as §1, §2, §3

[4] = system: Human Lung Carcinoma SKMES; experiment: MTT growth inhibitory assay, SKMES; assay type: cell-based; settings: SKMES cells, A3 antagonist at 0.5 μg/ml
Method: as §1, §2, §3

P-gp, sequence (P08183 whole entry): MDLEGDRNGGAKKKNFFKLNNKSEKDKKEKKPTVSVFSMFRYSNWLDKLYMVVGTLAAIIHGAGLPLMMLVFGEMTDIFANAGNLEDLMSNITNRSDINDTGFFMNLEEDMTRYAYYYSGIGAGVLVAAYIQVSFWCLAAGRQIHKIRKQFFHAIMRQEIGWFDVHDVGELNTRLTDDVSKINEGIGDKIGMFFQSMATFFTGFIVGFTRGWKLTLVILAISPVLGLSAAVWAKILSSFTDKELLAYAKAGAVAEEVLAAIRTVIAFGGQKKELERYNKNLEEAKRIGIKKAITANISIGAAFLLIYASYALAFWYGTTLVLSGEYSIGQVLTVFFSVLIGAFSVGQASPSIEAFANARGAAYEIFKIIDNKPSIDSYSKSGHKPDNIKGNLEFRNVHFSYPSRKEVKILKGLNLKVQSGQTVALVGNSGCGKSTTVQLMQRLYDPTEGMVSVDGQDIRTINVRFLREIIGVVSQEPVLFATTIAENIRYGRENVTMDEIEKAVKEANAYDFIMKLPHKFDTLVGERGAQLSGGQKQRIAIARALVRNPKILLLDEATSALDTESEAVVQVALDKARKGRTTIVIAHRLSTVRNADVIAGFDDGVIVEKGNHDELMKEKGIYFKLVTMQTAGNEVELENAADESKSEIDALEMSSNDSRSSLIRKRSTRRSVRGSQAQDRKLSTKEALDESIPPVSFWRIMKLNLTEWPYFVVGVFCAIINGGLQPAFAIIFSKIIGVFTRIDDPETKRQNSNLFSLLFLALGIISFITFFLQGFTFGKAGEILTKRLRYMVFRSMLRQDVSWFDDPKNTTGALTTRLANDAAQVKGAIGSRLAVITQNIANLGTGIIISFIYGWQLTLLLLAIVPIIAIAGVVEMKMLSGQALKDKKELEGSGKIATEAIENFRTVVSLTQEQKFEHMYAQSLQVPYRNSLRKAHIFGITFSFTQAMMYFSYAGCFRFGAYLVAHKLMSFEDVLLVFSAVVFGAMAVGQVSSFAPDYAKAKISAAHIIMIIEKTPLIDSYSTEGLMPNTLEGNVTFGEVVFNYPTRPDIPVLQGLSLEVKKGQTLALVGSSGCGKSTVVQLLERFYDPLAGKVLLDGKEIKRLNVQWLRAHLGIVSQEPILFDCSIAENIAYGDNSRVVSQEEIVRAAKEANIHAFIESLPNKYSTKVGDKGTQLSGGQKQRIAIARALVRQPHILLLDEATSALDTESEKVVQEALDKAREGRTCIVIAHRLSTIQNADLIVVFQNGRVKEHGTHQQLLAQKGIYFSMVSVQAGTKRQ

CC[C@]1(O)C[C@@H]2CN(CCc3c([nH]c4ccccc34)[C@@](C(=O)OC)(c3cc4c(cc3OC)N(C)[C@H]3[C@@](O)(C(N)=O)[C@H](O)[C@]5(CC)C=CCN6CC[C@]43[C@@H]65)C2)C1 [vindesine]
EC50 (A375 cells; A-375, 24 h, read-out: EC50 (G2/M accumulation)): 0.0019 ± 0.0002 µM

Oc1ccc(-c2nc(-c3ccncc3)c(-c3ccc(F)cc3)[nH]2)cc1 [SB202190]
effect on Cl-IB-MECA-induced increase of HIF-1α protein expression (HIF-1α): able to inhibit

CC(=O)O[C@@]12CO[C@@H]1C[C@H](O)[C@@]1(C)C(=O)[C@H](O)C3=C(C)[C@@H](OC(=O)[C@H](O)[C@@H](NC(=O)OC(C)(C)C)c4ccccc4)C[C@@](O)([C@@H](OC(=O)c4ccccc4)[C@H]21)C3(C)C [docetaxel]
acute hypersensitivity reaction, % of patients [1]: 13% | severe hypersensitivity reaction, % of patients [1]: 1.2%

Cn1cc2c(nc(NC(=O)Nc3ccncc3)n3nc(-c4ccco4)nc23)n1 [MRE 3005F20]
effect on Cl-IB-MECA-induced HIF-1α modulation (HIF-1α; hypoxia, antagonist 10 and 100 nM, Cl-IB-MECA 10 and 100 nM): able to abrogate the effect of Cl-IB-MECA

N#CC(=C(/N)Sc1ccccc1N)/C(C#N)=C(\N)Sc1ccccc1N [Compound U0126]
effect on Cl-IB-MECA-induced increase of HIF-1α protein expression (HIF-1α): able to inhibit | reduction of apoptosis induced by paclitaxel (A375 cells): 73±10% | effect on MRE 3008F20 blockade of P-gp (P-gp; A375, U0126 30 μM 30 minutes, then MRE3008F20 10 μM): failed to prevent MRE 3008F20 blockade of P-gp

O=C1c2c(O)ccc(O)c2C(=O)c2c(NCCNCCO)ccc(NCCNCCO)c21 [mitoxantrone, reference compound]
fold more refractory, HT29 vs A375 cell line (IC50) [2]: approximately 30 fold

Nc1nc2ccc(Cl)cc2c2nc(-c3ccco3)nn12 [CGS 15943, 5-amino-9-chloro-2-(furyl)1,2,4-triazolo[1,5-c]quinazoline, reference compound]
EC50 (A375 cells; A-375, read-out: SEC50): 12.6 ± 1.41 µM | % of Rh123 Negative Cells (cells expressing P-gp activity) (P-gp; 70 μM): 87.1 ± 1.0%

CCN(CC)c1ccc(NC(=O)Nc2nc3nn(C)cc3c3nc(-c4ccco4)nn23)cc1.Cl [IL-10, N-1-(4-diethylamino-phenyl)-N′—S-[8-methyl-2-(2-furyl)-pyrazolo[4,3-e]1,2,4-triazolo[1,5-c]pyrimidine]-urea]
Enhancement Factor (Human Melanoma A375; enhancement of docetaxel IC50, A3 antagonist at 0.5 μg/ml): 8.4 | Enhancement Factor (Human Melanoma A375; enhancement of docetaxel IC50, A3 antagonist at 5 μg/ml): 2.9 | Enhancement Factor (Human Melanoma A375; enhancement of paclitaxel IC50, A3 antagonist at 0.5 μg/ml): 3.7 | Enhancement Factor (Human Melanoma A375; enhancement of paclitaxel IC50, A3 antagonist at 5 μg/ml): 8.8 and 9.2 | Enhancement Factor ([3]; enhancement of docetaxel IC50): 1.4 | Enhancement Factor ([3]; enhancement of paclitaxel IC50): 1.7 | Enhancement Factor ([4]; enhancement of docetaxel IC50): 2.8 | Enhancement Factor ([4]; enhancement of irinotecan HCL IC50): 1.7 | Enhancement Factor ([4]; enhancement of paclitaxel IC50): 2.8 | Enhancement Factor ([4]; enhancement of vinblastine IC50): 1.4 | % of Rh123 Negative Cells (cells expressing P-gp activity) (P-gp; 10 μM): 0.4 ± 0.2% | Enhancement Factor ([2]; enhancement of docetaxel IC50): 5.5 | Enhancement Factor ([2]; enhancement of doxorubicin IC50): 1.5 | Enhancement Factor ([2]; enhancement of irinotecan IC50): 1.2 | Enhancement Factor ([2]; enhancement of paclitaxel IC50): 2.5

Nc1nc2c(cnn2CCc2ccccc2)c2nc(-c3ccco3)nn12 [SCH 58261, 5-amino-7-(2-phenylethyl)-2-(2-furyl)-pyrazolo[4,3-e]-1,2,4-triazolo[1,5-c]pyrimidine]
effect on adenosine-induced HIF-1α protein expression (HIF-1α): not able to prevent

CCCn1cc2c(nc(NC(=O)Nc3ccccc3)n3nc(-c4ccco4)nc23)n1 [MRE 3055F20, 5-N-(4-phenylcarbamoyl)amino-8-propyl-2(2furyl)-pyrazolo[4,3e]-1,2,4-triazolo-[1,5c]pyrimidine]
EC50 (A375 cells; A-375, read-out: SEC50): 0.31 ± 0.03 µM | % of Rh123 Negative Cells (cells expressing P-gp activity) (P-gp; 10 μM): 0.8 ± 0.2%

COc1cccc2c1C(=O)c1c(O)c3c(c(O)c1C2=O)C[C@@](O)(C(=O)CO)C[C@@H]3O[C@H]1C[C@H](N)[C@H](O)[C@H](C)O1 [doxorubicin, reference compound]
fold more refractory, HT29 vs A375 cell line (IC50) [2]: approximately 30 fold

CCCn1c(=O)c2[nH]c(-c3cc(OCC(=O)Nc4ccc5c(c4)OCO5)nn3C)nc2n(CCC)c1=O [MRE 2029F20]
effect on adenosine-induced HIF-1α protein expression (HIF-1α): not able to prevent

Cc1ccc(NC(=O)Nc2nc3nn(C)cc3c3nc(-c4ccco4)nn23)cc1 [MRE 3046F20, 5-N-(4-methylphenyl-carbamoyl)amino-8-methyl-2(2-furyl)-pyrazolo-[4,3e]-1,2,4-triazolo[1,5-c]pyrimidine]
EC50 (A375 cells; A-375, read-out: SEC50): 0.57 ± 0.06 µM | % of Rh123 Negative Cells (cells expressing P-gp activity) (P-gp; 10 μM): 22.0 ± 1.0%

C[S+]([O-])c1ccc(-c2nc(-c3ccncc3)c(-c3ccc(F)cc3)[nH]2)cc1 (stereo not shown) [SB203580]
reduction of apoptosis induced by paclitaxel (A375 cells): did not exert any effect
